These results are taken from patent US20260242335A1, “HETEROCYCLOALKYL BETA-HYDROXY ALKYL AMINES FOR USE IN THE TREATMENT OF HYPERGLYCAEMIA AND DISORDERS CHARACTERISED BY HYPERGLYCAEMIA” (ATROGI AB, priority 2023, published 2026).

Each structure is given as a SMILES string. Structures can show the parent of a compound that is named as a salt. Bounds are passed on as bounds.

For assay [1], the system named is L6-myotubes. In words: Glucose uptake (3H-2-deoxyglucose) in differentiated L6-myotubes, compared to isoproterenol. In kind it is cell-based. To be noted: compound at 10 μM vs isoproterenol at 10 μM, read-out: Biological example 1: glucose uptake activity compared to that of isoproterenol. In a few lines:
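Differentiated L6 myotubes, serum-starved overnight in 0.5% fatty-acid-free BSA, were pretreated 1 h 40 min with agonist at 1×10^−5 M final, then re-dosed in glucose-free medium for 20 min. Uptake of 50 nM 3H-2-deoxyglucose over 10 min was read by scintillation counting and compared with isoproterenol.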

The subject of assay [2] is L6-myotubes. Briefly: Measurement of intracellular cAMP levels (alpha screen cAMP kit) in differentiated cells, compared to isoproterenol. In kind it is cell-based. To be noted: 0.25 h, compound at 10 μM vs isoproterenol at 10 μM, 15 min stimulation, read-out: Biological example 2: intracellular cAMP level activity compared to that of isoproterenol. In short, it runs like this: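 Rat L6 myoblasts differentiated to myotubes over 7 days in 2% FBS, serum-starved overnight, then stimulated 15 min with agonist at 1×10^−5 M final in HBSS with 1 mM IBMX, pH 7.4. cAMP measured by AlphaScreen after ethanol extraction and lysis; activity expressed relative to isoproterenol.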
In general terms: Cyclic AMP is a second messenger, typically raised through Gs and lowered through Gi signalling.

Take `CC(C)(C[C@@H]1CCN(S(C)(=O)=O)C1)NC[C@H](O)c1cncc(F)c1` [Example 71, (R)-1-(5-Fluoropyridin-3-yl)-2-((2-methyl-1-((S)-1-(methylsulfonyl)-pyrrolidin-3-yl)propan-2-yl)amino)ethan-1-ol]: the Emax at 10 µM in assay [1] is greater than 75%; in assay [2], less than 25%.

As to `CC(C)(C[C@@H]1CNC(=O)C1)NC[C@H](O)c1cccc(F)c1` [Example 72, (S)-4-(2-(((R)-2-(3-Fluorophenyl)-2-hydroxyethyl)amino)-2-methyl-propyl)pyrrolidin-2-one hydrochloride], the Emax at 10 µM is greater than 75% in assay [1] and 50 to 75% in assay [2].

With `CC(C)(C[C@H]1CCNC1=O)NC[C@H](O)c1cccc(F)c1` [Example 73, (R)-3-(2-(((R)-2-(3-Fluorophenyl)-2-hydroxyethyl)amino)-2-methyl-propyl)pyrrolidin-2-one hydrochloride], the Emax at 10 µM was greater than 75% in assay [1] and less than 25% in assay [2].

With `CC(C)(C[C@@H]1CNC(=O)C1)NC[C@H](O)c1cncc(F)c1` [Example 74, (S)-4-(2-(((R)-2-(5-Fluoropyridin-3-yl)-2-hydroxyethyl)amino)-2-methylpropyl)pyrrolidin-2-one dihydrochloride], the Emax at 10 µM was greater than 75% in assay [1] and 25 to 50% in assay [2].

In the case of `CC(C)(C[C@H]1CCNC1=O)NC[C@H](O)c1cncc(F)c1` [Example 75, (R)-3-(2-(((R)-2-(5-Fluoropyridin-3-yl)-2-hydroxyethyl)amino)-2-methylpropyl)pyrrolidin-2-one dihydrochloride], the results for the Emax at 10 µM in assay [1] and in assay [2] were 25 to 50% and less than 25%, respectively.

In the case of `CC(C)(C[C@H]1CNC(=O)C1)NC[C@H](O)c1cccc(F)c1` [Example 76, (R)-4-(2-(((R)-2-(3-Fluorophenyl)-2-hydroxyethyl)amino)-2-methyl-propyl)pyrrolidin-2-one hydrochloride], the Emax at 10 µM in assay [1] is greater than 75%; in assay [2] it was less than 25%.

`CC(C)(C[C@@H]1CCNC1=O)NC[C@H](O)c1cccc(F)c1` [Example 77, (S)-3-(2-(((R)-2-(3-Fluorophenyl)-2-hydroxyethyl)amino)-2-methyl-propyl)pyrrolidin-2-one hydrochloride]: the Emax at 10 µM in assay [1] is 50 to 75%; in assay [2], less than 25%.

For `CC(C)(C[C@H]1CNC(=O)C1)NC[C@H](O)c1cncc(F)c1` [Example 78, (R)-4-(2-(((R)-2-(5-Fluoropyridin-3-yl)-2-hydroxyethyl)amino)-2-methylpropyl)pyrrolidin-2-one dihydrochloride], the Emax at 10 µM in assay [1] is greater than 75%; in assay [2], less than 25%.

With `CC(C)(CC1CCOCC1)NC[C@H](O)c1cccc(F)c1` [Example 80, (R)-1-(3-Fluorophenyl)-2-((2-methyl-1-(tetrahydro-2H-pyran-4-yl)-propan-2-yl)amino)ethan-1-ol], the Emax at 10 µM in assay [1] is greater than 75%; in assay [2], less than 25%.

As for `CC(C)(C[C@H]1CCCCO1)NC[C@H](O)c1cccc(F)c1` [Example 81, (R)-1-(3-Fluorophenyl)-2-((2-methyl-1-((R)-tetrahydro-2H-pyran-2-yl)propan-2-yl)amino)ethan-1-ol], the Emax at 10 µM in assay [1] is greater than 75%; in assay [2] it was 25 to 50%.

Turning to `CC(C)(C[C@@H]1CCCCO1)NC[C@H](O)c1cccc(F)c1` [Example 82, (R)-1-(3-Fluorophenyl)-2-((2-methyl-1-((S)-tetrahydro-2H-pyran-2-yl)propan-2-yl)amino)ethan-1-ol], the Emax at 10 µM was greater than 75% in assay [1] and less than 25% in assay [2].

For the compound `CC(C)(C[C@H]1CCCOC1)NC[C@H](O)c1cccc(F)c1` [Example 83, (R)-1-(3-Fluorophenyl)-2-((2-methyl-1-((R)-tetrahydro-2H-pyran-3-yl)propan-2-yl)amino)ethan-1-ol], the figures for the Emax at 10 µM in assay [1] and in assay [2] were greater than 75% and less than 25%, respectively.

For the compound `CC(C)(C[C@@H]1CCCOC1)NC[C@H](O)c1cccc(F)c1` [Example 84, (R)-1-(3-Fluorophenyl)-2-((2-methyl-1-((S)-tetrahydro-2H-pyran-3-yl)propan-2-yl)amino)ethan-1-ol], the Emax at 10 µM in assay [1] was greater than 75%; in assay [2], 50 to 75%.

In the case of `COC1CCN(CC(C)(C)NC[C@H](O)c2cccc(F)c2)CC1` [Example 85, (R)-1-(3-Fluorophenyl)-2-((1-(4-methoxypiperidin-1-yl)-2-methyl-propan-2-yl)amino)ethan-1-ol dihydrochloride], the Emax at 10 µM is greater than 75% in assay [1] and less than 25% in assay [2].

As for `CC(=O)N1CCN(CC(C)(C)NC[C@H](O)c2cccc(F)c2)CC1` [Example 86, (R)-1-(4-(2-((2-(3-Fluorophenyl)-2-hydroxyethyl)amino)-2-methyl-propyl)piperazin-1-yl)ethan-1-one dihydrochloride], the Emax at 10 µM in assay [1] is greater than 75%; in assay [2], less than 25%.
